Counter-ions that a name gives are not always drawn.
Molecular target: ROCK2 (Homo sapiens, UniProt O75116)
Assay: ROCK2 kinase inhibition assay (Caliper LABCHIP, FITC peptide substrate)
Type: biochemical
Details: 5 μM ATP, 1.5 μM peptide substrate; value ranges
Method in brief: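 Dose-response curves gave IC50 from inhibition of peptide phosphorylation, measured by LabChip separation after EDTA stop. Reactions used 1.5 μM FITC-labelled peptide, 5 μM ATP, 20 mM HEPES pH 7.5 with MgCl2, Brij-35, DTT, and under 2% DMSO.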

ROCK2, sequence (O75116 whole entry, species assumed): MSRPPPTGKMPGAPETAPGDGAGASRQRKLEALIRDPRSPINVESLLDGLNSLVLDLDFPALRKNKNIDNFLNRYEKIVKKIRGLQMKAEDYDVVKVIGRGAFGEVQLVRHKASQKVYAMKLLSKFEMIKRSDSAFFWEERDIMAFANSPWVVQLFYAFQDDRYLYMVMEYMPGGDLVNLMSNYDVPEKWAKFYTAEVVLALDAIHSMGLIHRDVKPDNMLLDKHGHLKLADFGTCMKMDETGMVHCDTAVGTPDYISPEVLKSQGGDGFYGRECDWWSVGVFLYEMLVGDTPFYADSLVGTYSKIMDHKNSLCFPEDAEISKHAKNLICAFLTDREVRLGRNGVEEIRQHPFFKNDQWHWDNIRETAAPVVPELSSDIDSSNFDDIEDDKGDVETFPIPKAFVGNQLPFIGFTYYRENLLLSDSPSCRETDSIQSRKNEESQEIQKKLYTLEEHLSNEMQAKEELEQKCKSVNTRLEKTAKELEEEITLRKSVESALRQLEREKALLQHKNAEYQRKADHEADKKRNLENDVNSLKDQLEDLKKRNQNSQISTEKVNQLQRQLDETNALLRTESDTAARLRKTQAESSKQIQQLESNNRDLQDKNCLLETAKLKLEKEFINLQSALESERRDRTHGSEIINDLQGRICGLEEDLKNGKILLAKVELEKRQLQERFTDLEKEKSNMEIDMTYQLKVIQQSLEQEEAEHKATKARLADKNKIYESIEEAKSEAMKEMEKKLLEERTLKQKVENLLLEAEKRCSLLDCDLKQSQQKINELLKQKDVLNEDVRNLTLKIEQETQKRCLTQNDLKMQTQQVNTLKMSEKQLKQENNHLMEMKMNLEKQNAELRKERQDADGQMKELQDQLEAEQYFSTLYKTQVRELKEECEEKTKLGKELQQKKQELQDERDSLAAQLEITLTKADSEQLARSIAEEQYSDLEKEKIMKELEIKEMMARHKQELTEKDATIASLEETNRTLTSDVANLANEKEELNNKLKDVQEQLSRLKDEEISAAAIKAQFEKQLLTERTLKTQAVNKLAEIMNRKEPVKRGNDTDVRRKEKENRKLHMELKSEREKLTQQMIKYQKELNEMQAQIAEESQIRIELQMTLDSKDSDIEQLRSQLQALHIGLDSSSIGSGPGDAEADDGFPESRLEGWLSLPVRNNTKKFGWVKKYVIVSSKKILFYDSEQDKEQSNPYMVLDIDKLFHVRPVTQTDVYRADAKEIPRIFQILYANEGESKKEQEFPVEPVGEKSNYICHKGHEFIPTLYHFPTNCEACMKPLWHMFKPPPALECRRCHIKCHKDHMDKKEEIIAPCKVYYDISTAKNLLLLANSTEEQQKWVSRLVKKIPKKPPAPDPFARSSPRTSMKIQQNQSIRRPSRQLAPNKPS

Row | Compound | IC50 [nM]
1 | CC(c1ccccc1)N1C(=O)CN(c2ccc(-c3cn[nH]c3)cc2)C1=O (stereo not drawn) [Example 109, 1-(4-(1H-pyrazol-4-yl)phenyl)-3-(1-phenylethyl) imidazolidine-2,4-dione] | 200 to 2000
2 | Cc1nc(N2CCN(Cc3ccc(F)c(OCC4CC4)c3)C2=O)ccc1-c1cn[nH]c1 [Example 210, 1-(3-(cyclopropylmethoxy)-4-fluorobenzyl)-3-(6-methyl-5-(1H-pyrazol-4-yl)pyridin-2-yl)imidazolidin-2-one] | 20.1 to 200
3 | CCc1nc(N2CCN(C(C)c3cccc(OCC4CC4)c3)C2=O)ccc1-c1cn[nH]c1 (single isomer, unassigned) [Example 265, 1-(1-(3-(cyclopropylmethoxy)phenyl)ethyl)-3-(6-ethyl-5-(1H-pyrazol-4-yl)pyridin-2-yl)imidazolidin-2-one] | 20.1 to 200
4 | CCc1nc(N2CCN(C(C)c3ccc(F)c(OC)c3)C2=O)ccc1-c1cn[nH]c1 (single isomer, unassigned) [Example 271, 1-(6-ethyl-5-(1H-pyrazol-4-yl)pyridin-2-yl)-3-(1-(4-fluoro-3-methoxyphenyl)ethyl)imidazolidin-2-one] | 200 to 2000
5 | COc1cccc(C(C)N2CCN(c3ccc(-c4cn[nH]c4)cn3)C2=O)c1 (single isomer, unassigned) [Example 459, 1-(5-(1H-pyrazol-4-yl)pyridin-2-yl)-3-(1-(3-methoxyphenyl)ethyl)imidazolidin-2-one] | 20.1 to 200
6 | CCNC(=O)C(c1cccc(OC)c1)N1CCN(c2ccc(-c3cn[nH]c3)cc2)C1=O (single isomer, unassigned) [Example 290, 2-(3-(4-(1H-Pyrazol-4-yl)phenyl)-2-oxoimidazolidin-1-yl)-N-ethyl-2-(3-methoxyphenyl)acetamide] | 20.1 to 200
7 | COc1cccc(F)c1CN1CCN(c2ccc(-c3cn[nH]c3)c(F)c2)C1=O [Example 431, 1-(3-fluoro-4-(1H-pyrazol-4-yl)phenyl)-3-(2-fluoro-6-methoxybenzyl)imidazolidin-2-one] | 20.1 to 200
8 | COc1cccc(C(C)n2ccn(-c3ccc(-c4cn[nH]c4)cc3)c2=O)c1 (single isomer, unassigned) [Example 340, 1-(4-(1H-pyrazol-4-yl)phenyl)-3-(l-(3-methoxyphenyl)ethyl)-1H-imidazol-2(3H)-one] | 20.1 to 200
9 | COc1cccc(CN2CC(CO)N(c3ccc(-c4cn[nH]c4)cc3)C2=O)c1 (single isomer, unassigned) [Example 126, 3-(4-(1H-Pyrazol-4-yl)phenyl)-4-(hydroxymethyl)-1-(3-methoxybenzyl)imidazolidin-2-one] | 20.1 to 200
10 | COc1cccc(CN2CCN(c3ccc(-c4ncnc5[nH]ccc45)cc3)C2=O)c1 [Example 64, 1-(4-(7H-Pyrrolo[2,3-d]pyrimidin-4-yl)phenyl)-3-(3-methoxybenzyl)imidazolidin-2-one] | 200 to 2000
11 | COc1cccc(C(C(=O)NCC(C)(C)O)N2CCN(c3ccc(-c4cn[nH]c4)cc3)C2=O)c1 (single isomer, unassigned) [Example 303, 2-(3-(4-(1H-pyrazol-4-yl)phenyl)-2-oxoimidazolidin-1-yl)-N-(2-hydroxy-2-methylpropyl)-2-(3-methoxyphenyl)acetamide] | 20.1 to 200
12 | O=C1CN(Cc2ccccc2Cl)C(=O)N1c1ccc(-c2cn[nH]c2)cc1 [Example 82, 3-(4-(1H-pyrazol-4-yl)phenyl)-1-(2-chlorobenzyl)imidazolidine-2,4-dione] | 20.1 to 200
13 | CNc1nc(N2CCN(Cc3cc(F)cc(OC)c3)C2=O)ccc1-c1cn[nH]c1 [Example 200, 1-(3-fluoro-5-methoxy-benzyl)-3-(6-(methyl-amino)-5-(1H-pyrazol-4-yl)pyridin-2-yl)-imidazolidin-2-one] | 2.1 to 20
14 | COc1cccc(C(C)n2ccn(-c3ccc(-c4cn[nH]c4)c(C)n3)c2=O)c1 (single isomer, unassigned) [Example 189, 1-(1-(3-methoxy-phenyl)-ethyl)-3-(6-methyl-5-(1H-pyrazol-4-yl)pyridin-2-yl)-1H-imidazol-2(3H)-one] | 20.1 to 200
15 | COc1cc(-c2cn[nH]c2)ccc1N1CCN(Cc2cccc(F)c2)C1=O [Example 9, 1-(3-Fluorobenzyl)-3-(2-methoxy-4-(1H-pyrazol-4-yl)phenyl)imidazolidin-2-one] | 20.1 to 200
16 | O=C1N(Cc2cccc(F)c2)CCN1c1ccc(-c2ccnc(F)c2)cc1 [Example 51, 1-(3-fluorobenzyl)-3-(4-(2-fluoropyridin-4-yl)phenyl)imidazolidin-2-one] | 200 to 2000
17 | COc1cc(N2C(=O)CN(Cc3cc(F)ccc3F)C2=O)ccc1-c1cn[nH]c1 [Example 92, 1-(2,5-difluorobenzyl)-3-(3-methoxy-4-(1H-pyrazol-4-yl)phenyl)imidazolidine-2,4-dione, TFA] | 200 to 2000

Other lines, results leading:

Row | IC50 [nM] | Compound
18 | 2.1 to 20 | COc1cccc(CN2CCN(c3ccc(-c4cn[nH]c4)c(F)c3)C2=O)c1 [Example 430, 1-(3-fluoro-4-(1H-pyrazol-4-yl)phenyl)-3-(3-methoxybenzyl)imidazolidin-2-one]
19 | 2.1 to 20 | COc1cccc(C(C)n2ccn(-c3ccc(-c4ccnc(N)n4)cc3)c2=O)c1 (single isomer, unassigned) [Example 399, 1-(4-(2-aminopyrimidin-4-yl)phenyl)-3-(1-(3-methoxyphenyl)ethyl)-1H-imidazol-2(3H)-one]
20 | < 2 | COc1ccc(F)c(CN2CCN(c3ccc(-c4cn[nH]c4)c(OC)n3)C2=O)c1 [Example 221, 1-(2-fluoro-5-methoxybenzyl)-3-(6-methoxy-5-(1H-pyrazol-4-yl)pyridin-2-yl)imidazolidin-2-one]
21 | < 2 | COc1cccc(C(C)N2CCN(c3ccc(-c4cn[nH]c4)cn3)C2=O)c1 (single isomer, unassigned) [Example 460, 1-(5-(1H-pyrazol-4-yl)pyridin-2-yl)-3-(1-(3-methoxyphenyl)ethyl)imidazolidin-2-one]
22 | 2.1 to 20 | COc1ccc(F)cc1Cn1ccn(-c2ccc(-c3cn[nH]c3)c(OC)n2)c1=O [Example 374, 1-(5-fluoro-2-methoxybenzyl)-3-(6-methoxy-5-(1H-pyrazol-4-yl)pyridin-2-yl)-1H-imidazol-2(3H)-one]
23 | 2.1 to 20 | COc1cc(CN2C(=O)N(c3ccc(-c4cn[nH]c4)cc3)CC2(C)C)ccc1F [Example 140, 1-(4-(1H-pyrazol-4-yl)phenyl)-3-(4-fluoro-3-methoxy-benzyl)-4,4-dimethyl-imidazolidin-2-one]
24 | 2.1 to 20 | COc1cccc(C(CO)N2CCN(c3ccc(-c4cn[nH]c4)c(C)c3)C2=O)c1 (single isomer, unassigned) [Example 165, 1-(2-hydroxy-1-(3-methoxy-phenyl)ethyl)-3-(3-methyl-4-(1H-pyrazol-4-yl)phenyl) imidazolidin-2-one]
25 | 2.1 to 20 | COc1cc(F)cc(CN2CCN(c3ccc(-c4cn[nH]c4)cn3)C2=O)c1 [Example 428, 1-(5-(1H-pyrazol-4-yl)pyridin-2-yl)-3-(3-fluoro-5-methoxybenzyl)imidazolidin-2-one]
26 | 2.1 to 20 | CCOC(=O)C1CN(Cc2cccc(OC)c2)C(=O)N1c1ccc(-c2cn[nH]c2)cc1 (stereo not drawn) [Example 36, Ethyl 3-(4-(1H-pyrazol-4-yl)phenyl)-1-(3-methoxybenzyl)-2-oxoimidazolidine-4-carboxylate]
27 | < 2 | CCc1nc(N2CCN(C(C)c3cc(F)cc(OC)c3)C2=O)ccc1-c1cn[nH]c1 (single isomer, unassigned) [Example 268, 1-(6-ethyl-5-(1H-pyrazol-4-yl)pyridin-2-yl)-3-(1-(3-fluoro-5-methoxyphenyl)ethyl)imidazolidin-2-one]
28 | < 2 | COc1cccc(CN2C(=O)N(c3ccc(-c4cn[nH]c4)cc3)CC2(C)C)c1 [Example 137, 1-(4-(1H-Pyrazol-4-yl)phenyl)-3-(3-methoxybenzyl)-4,4-dimethylimidazolidin-2-one]
29 | 2.1 to 20 | COc1cc(CN2C(=O)N(c3ccc(-c4cn[nH]c4)cc3)C[C@@H]2CO)ccc1F (single isomer, unassigned) [Example 130]
30 | < 2 | CCc1nc(-n2ccn(C(C)c3cc(F)cc(OC)c3)c2=O)ccc1-c1cn[nH]c1 (single isomer, unassigned) [Example 362, 1-(6-ethyl-5-(1H-pyrazol-4-yl)pyridin-2-yl)-3-(1-(3-fluoro-5-methoxyphenyl)ethyl)-1H-imidazol-2(3H)-one]
31 | 2.1 to 20 | COc1nc(N2CCN(C(C)c3cccc(OCC4CC4)c3)C2=O)ccc1-c1cn[nH]c1 (single isomer, unassigned) [Example 212, 1-(1-(3-(cyclopropylmethoxy)phenyl)ethyl)-3-(6-methoxy-5-(1H-pyrazol-4-yl)pyridin-2-yl)imidazolidin-2-one]
32 | < 2 | COc1cccc(CN2C(=O)N(c3ccc(-c4cn[nH]c4)c(OC)c3)CC2CO)c1 (stereo not drawn) [Example 40, 4-(Hydroxymethyl)-1-(3-methoxy-4-(1H-pyrazol-4-yl)phenyl)-3-(3-methoxybenzyl)imidazolidin-2-one]
33 | 2.1 to 20 | COc1cccc(C(C)N2C(=O)N(c3ccc(-c4cn[nH]c4)cc3)CC2(C)C)c1 (single isomer, unassigned) [Example 145, 1-(4-(1H-pyrazol-4-yl)phenyl)-3-(1-(3-methoxy-phenyl)-ethyl)-4,4-dimethyl-imidazolidin-2-one]
34 | 2.1 to 20 | COc1cccc(C(C)N2CCN(c3ccc(-c4cn[nH]c4)c(C)c3)C2=O)c1 (single isomer, unassigned) [Example 193, 1-(1-(3-methoxy-phenyl)-ethyl)-3-(3-methyl-4-(1H-pyrazol-4-yl)phenyl) imidazolidin-2-one]
35 | < 2 | COc1cccc(Cn2ccn(-c3ccc(-c4cn[nH]c4)c(OC)n3)c2=O)c1 [Example 376, 1-(6-methoxy-5-(1H-pyrazol-4-yl)pyridin-2-yl)-3-(3-methoxybenzyl)-1H-imidazol-2(3H)-one]
36 | < 2 | COc1cc(F)cc(CN2CCN(c3ccc(-c4cn[nH]c4)c(C)c3)C2=O)c1 [Example 274, 1-(3-fluoro-5-methoxybenzyl)-3-(3-methyl-4-(1H-pyrazol-4-yl)phenyl)imidazolidin-2-one]
